Measured values from PubChem BioAssay AID248 (DTP/NCI, 2004).
Inconclusive results and toxic doses are left out. Cut-off read from the data, not from the text of the source: active = T/C of 150% or more; inactive = T/C below 125%.

Tested on: L1210 leukemia ip in BDF1 mice, survival T/C
Experiment: NCI In Vivo Anticancer Drug Screen. Data for tumor model L1210 Leukemia (intraperitoneal) in B6D2F1 (BDF1) mice
Conditions: endpoint: mean survival time, higher = longer survival
Summary of the method: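 Tumor cells were implanted, animals were treated, and survival was followed. The result divides the treated measurement by the vehicle-control measurement.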

[1] = dose: 100.0 mg/kg/injection, schedule: Q01DX001 (ip), vehicle: carboxymethylcellulose (CMC)
[2] = dose: 200.0 mg/kg/injection, schedule: Q01DX001 (ip), vehicle: carboxymethylcellulose (CMC)
[3] = dose: 400.0 mg/kg/injection, schedule: Q01DX001 (ip), vehicle: carboxymethylcellulose (CMC)
[4] = dose: 100.0 mg/kg/injection, schedule: Q04DX002 (ip), vehicle: Klucel (hydroxypropylcellulose) (HPC)
[5] = dose: 200.0 mg/kg/injection, schedule: Q04DX002 (ip), vehicle: Klucel (hydroxypropylcellulose) (HPC)
[6] = dose: 400.0 mg/kg/injection, schedule: Q04DX002 (ip), vehicle: Klucel (hydroxypropylcellulose) (HPC)
[7] = dose: 100.0 mg/kg/injection, schedule: Q01DX001 (ip), vehicle: saline
[8] = dose: 200.0 mg/kg/injection, schedule: Q01DX001 (ip), vehicle: saline
[9] = dose: 400.0 mg/kg/injection, schedule: Q01DX001 (ip), vehicle: saline
[10] = dose: 100.0 mg/kg/injection, schedule: Q01DX009 (ip), vehicle: Klucel (hydroxypropylcellulose) (HPC)
[11] = dose: 100.0 mg/kg/injection, schedule: Q04DX003 (ip), vehicle: Klucel (hydroxypropylcellulose) (HPC)
[12] = dose: 200.0 mg/kg/injection, schedule: Q01DX009 (ip), vehicle: Klucel (hydroxypropylcellulose) (HPC)
[13] = dose: 200.0 mg/kg/injection, schedule: Q04DX003 (ip), vehicle: Klucel (hydroxypropylcellulose) (HPC)
[14] = dose: 400.0 mg/kg/injection, schedule: Q04DX003 (ip), vehicle: Klucel (hydroxypropylcellulose) (HPC)
[15] = dose: 400.0 mg/kg/injection, schedule: Q01DX009 (ip), vehicle: Klucel (hydroxypropylcellulose) (HPC)
[16] = dose: 100.0 mg/kg/injection, schedule: Q01DX009 (ip), vehicle: saline with Tween-80
[17] = dose: 200.0 mg/kg/injection, schedule: Q01DX009 (ip), vehicle: saline with Tween-80
[18] = dose: 400.0 mg/kg/injection, schedule: Q01DX009 (ip), vehicle: saline with Tween-80
[19] = dose: 100.0 mg/kg/injection, schedule: Q04DX003 (ip), vehicle: saline

Measured: T/C

COc1ccc2c(c1)CCC(=O)O2
inactive: dose: 50.0 mg/kg/injection, schedule: Q01DX001 (ip), vehicle: carboxymethylcellulose (CMC) 100 % of control | [1] 96 % of control | dose: 100.0 mg/kg/injection, schedule: Q04DX003 (ip), vehicle: saline sonified 102 % of control | [2] 100 % of control | dose: 200.0 mg/kg/injection, schedule: Q04DX003 (ip), vehicle: saline sonified 104 % of control | [3] 100 % of control | dose: 400.0 mg/kg/injection, schedule: Q04DX003 (ip), vehicle: saline sonified 102 % of control

O=C(NCCCCCCCNC(=O)Nc1ccc(C2=NCCCN2)cc1)Nc1ccc(C2=NCCCN2)cc1
inactive: dose: 3.75 mg/kg/injection, schedule: Q01DX Z (ip), vehicle: carboxymethylcellulose (CMC) 98 % of control | dose: 7.5 mg/kg/injection, schedule: Q01DX Z (ip), vehicle: carboxymethylcellulose (CMC) 102 % of control | dose: 15.0 mg/kg/injection, schedule: Q01DX Z (ip), vehicle: carboxymethylcellulose (CMC) 120 % of control | dose: 30.0 mg/kg/injection, schedule: Q01DX Z (ip), vehicle: carboxymethylcellulose (CMC) 89 % of control

Cc1ccc(N=Nc2ccc(C)cc2NC(=O)Nc2cc([N+](=O)[O-])ccc2C)cc1
inactive: [4] 92 % of control | [5] 101 % of control | [6] 111 % of control

CC12CC3CC(C)(C1)CC(SCCN=C(N)CCl)(C3)C2
inactive: dose: 10.0 mg/kg/injection, schedule: Q04DX002 (ip), vehicle: Klucel (hydroxypropylcellulose) (HPC) 105 % of control | dose: 20.0 mg/kg/injection, schedule: Q04DX002 (ip), vehicle: Klucel (hydroxypropylcellulose) (HPC) 102 % of control | dose: 40.0 mg/kg/injection, schedule: Q04DX002 (ip), vehicle: Klucel (hydroxypropylcellulose) (HPC) 110 % of control

Nc1nc(N)nc(-c2ccc(Cl)cc2)n1
inactive: dose: 25.0 mg/kg/injection, schedule: Q01DX001 (ip), vehicle: saline with Tween-80 96 % of control | dose: 50.0 mg/kg/injection, schedule: Q01DX001 (ip), vehicle: saline with Tween-80 98 % of control | dose: 100.0 mg/kg/injection, schedule: Q01DX001 (ip), vehicle: saline with Tween-80 101 % of control

COc1cccc(NC(=S)Nc2ccc(O)cc2)c1
inactive: [4] 99 % of control | [5] 101 % of control | [6] 104 % of control

CN(Cc1c(S)ccc2ccccc12)Cc1c(S)ccc2ccccc12
inactive: [7] 94 % of control | [8] 98 % of control | [9] 96 % of control

CN(C)S(=O)(=O)c1ccc(CCCCCCc2ccc(S(=O)(=O)N(C)C)cc2)cc1
inactive: [1] 96 % of control | [2] 102 % of control | [3] 91 % of control

Cc1ccc(/C(=N\N=C(N)N)C2CC2)cc1
inactive: dose: 15.0 mg/kg/injection, schedule: Q01DX Z (ip), vehicle: methylcellulose (MC) 102 % of control | dose: 30.0 mg/kg/injection, schedule: Q01DX Z (ip), vehicle: methylcellulose (MC) 113 % of control | dose: 60.0 mg/kg/injection, schedule: Q01DX Z (ip), vehicle: methylcellulose (MC) 112 % of control | dose: 120.0 mg/kg/injection, schedule: Q01DX Z (ip), vehicle: methylcellulose (MC) 97 % of control | dose: 120.0 mg/kg/injection, schedule: Q01DX Z (oral), vehicle: methylcellulose (MC) 96 % of control | dose: 240.0 mg/kg/injection, schedule: Q01DX Z (ip), vehicle: methylcellulose (MC) 99 % of control | dose: 240.0 mg/kg/injection, schedule: Q01DX Z (oral), vehicle: methylcellulose (MC) 98 % of control | dose: 480.0 mg/kg/injection, schedule: Q01DX Z (oral), vehicle: methylcellulose (MC) 90 % of control

COC(=O)NS(=O)(=O)C=C(c1ccccc1)c1ccccc1
inactive: [10] 106 % of control | [11] 96 % of control | [12] 106 % of control | [13] 108 % of control | [14] 86 % of control

CCOC(=O)c1cccs1
inactive: [10] 99 % of control | [11] 103 % of control | [12] 95 % of control | [13] 100 % of control | [15] 97 % of control | [14] 105 % of control

CCOc1ccccc1NC(=O)c1cccc(F)c1
inactive: [16] 101 % of control | [17] 104 % of control | [18] 101 % of control

O=C(Nc1ccc([N+](=O)[O-])cc1)N(c1cc(Cl)ccn1)C1CCCCC1
inactive: [7] 96 % of control | [8] 90 % of control | [9] 96 % of control

c1ccc(-c2cncc(CNCc3cncc(-c4ccccc4)c3)c2)cc1
inactive: dose: 100.0 mg/kg/injection, schedule: Q01DX001 (ip), vehicle: Klucel (hydroxypropylcellulose) (HPC) 102 % of control | dose: 200.0 mg/kg/injection, schedule: Q01DX001 (ip), vehicle: Klucel (hydroxypropylcellulose) (HPC) 95 % of control | dose: 400.0 mg/kg/injection, schedule: Q01DX001 (ip), vehicle: Klucel (hydroxypropylcellulose) (HPC) 110 % of control

N#CC(=C=[N-])[n+]1ccccc1
inactive: dose: 6.25 mg/kg/injection, schedule: Q01DX009 (ip), vehicle: saline 100 % of control | dose: 12.5 mg/kg/injection, schedule: Q01DX009 (ip), vehicle: saline 100 % of control | dose: 18.8 mg/kg/injection, schedule: Q01DX001 (ip), vehicle: saline 108 % of control | dose: 37.5 mg/kg/injection, schedule: Q01DX001 (ip), vehicle: saline 100 % of control

O=[N+]([O-])c1ccccc1S(=O)(=O)N1CCN(S(=O)(=O)c2ccccc2[N+](=O)[O-])C1
inactive: [10] 90 % of control | [11] 96 % of control | [12] 93 % of control | [13] 96 % of control | [15] 93 % of control | [14] 100 % of control

CNS(C)(=O)=O
inactive: [7] 108 % of control | [19] 101 % of control | [8] 106 % of control | dose: 200.0 mg/kg/injection, schedule: Q04DX003 (ip), vehicle: saline 104 % of control | [9] 95 % of control | dose: 400.0 mg/kg/injection, schedule: Q04DX003 (ip), vehicle: saline 106 % of control

C=CCN(C(=O)OCC)c1ccccc1
inactive: [10] 110 % of control | [11] 95 % of control | [12] 108 % of control | [13] 106 % of control | [15] 93 % of control | [14] 106 % of control

CC(=O)OC1CCC2(C)C(=CCC3C2CCC2(C)C(OC(=O)c4ccccc4)CCC32)C1 (stereo not drawn)
inactive: [16] 89 % of control | [17] 110 % of control | [18] 96 % of control

S=C(S)N1CCC(CC2CCN(C(=S)S)CC2)CC1
inactive: [16] 98 % of control | dose: 100.0 mg/kg/injection, schedule: Q04DX003 (ip), vehicle: saline with Tween-80 102 % of control | [17] 93 % of control | dose: 200.0 mg/kg/injection, schedule: Q04DX003 (ip), vehicle: saline with Tween-80 96 % of control | dose: 400.0 mg/kg/injection, schedule: Q04DX003 (ip), vehicle: saline with Tween-80 86 % of control

O=C1Nc2nc(=O)nc3[nH]c(=O)nc(n23)N1
inactive: dose: 25.0 mg/kg/injection, schedule: Q01DX009 (ip), vehicle: saline 106 % of control | dose: 50.0 mg/kg/injection, schedule: Q01DX009 (ip), vehicle: saline 98 % of control | dose: 50.0 mg/kg/injection, schedule: Q04DX003 (ip), vehicle: saline 110 % of control | dose: 100.0 mg/kg/injection, schedule: Q01DX009 (ip), vehicle: saline 98 % of control | [19] 103 % of control

Nc1nc(N)c2nn(-c3ccc(C(=O)O)cc3)nc2n1
inactive: dose: 75.0 mg/kg/injection, schedule: Q01DX001 (ip), vehicle: saline 87 % of control | dose: 150.0 mg/kg/injection, schedule: Q01DX001 (ip), vehicle: saline 86 % of control | dose: 300.0 mg/kg/injection, schedule: Q01DX001 (ip), vehicle: saline 103 % of control

CCOc1cc(/C=N/NC(=O)c2ccccc2NC(=O)c2ccccc2)ccc1OC
inactive: [10] 92 % of control | [12] 92 % of control | [15] 101 % of control
